Numbers after ± are expanded uncertainties.
Conditions: Liquid

CCCCCCCCCl [1-chlorooctane]
Conditions	mass density [kg/m3]
288.15 K, 100 kPa	877.3 ± 1.3
288.15 K, 2000 kPa	878.8 ± 1.3
288.15 K, 4000 kPa	880.2 ± 1.4
288.15 K, 6000 kPa	881.6 ± 1.5
288.15 K, 8000 kPa	883 ± 1.5
288.15 K, 10000 kPa	884.4 ± 1.6
288.15 K, 11900 kPa	885.8 ± 1.7
288.15 K, 13900 kPa	887.1 ± 1.7
288.15 K, 16000 kPa	888.4 ± 1.8
288.15 K, 18000 kPa	889.7 ± 1.8
288.15 K, 20100 kPa	891.2 ± 1.9
298.15 K, 100 kPa	868.8 ± 1.3
298.15 K, 2000 kPa	870.2 ± 1.3
298.15 K, 4100 kPa	871.8 ± 1.4
298.15 K, 6100 kPa	873.3 ± 1.5
298.15 K, 8100 kPa	874.8 ± 1.6
298.15 K, 10000 kPa	876.2 ± 1.6
298.15 K, 12100 kPa	877.8 ± 1.7
298.15 K, 14200 kPa	879.3 ± 1.8
298.15 K, 16300 kPa	880.7 ± 1.8
298.15 K, 18300 kPa	882.1 ± 1.9
298.15 K, 20200 kPa	883.4 ± 2
308.15 K, 100 kPa	861.4 ± 1.3
308.15 K, 2000 kPa	862.8 ± 1.4
308.15 K, 4000 kPa	864.4 ± 1.4
308.15 K, 6000 kPa	865.9 ± 1.5
308.15 K, 7900 kPa	867.5 ± 1.6
308.15 K, 10100 kPa	869.1 ± 1.7
308.15 K, 12000 kPa	870.5 ± 1.7
308.15 K, 14000 kPa	872 ± 1.8
308.15 K, 15900 kPa	873.3 ± 1.9
308.15 K, 18000 kPa	874.8 ± 2
308.15 K, 20000 kPa	876.5 ± 2
318.15 K, 100 kPa	852.9 ± 1.3
318.15 K, 2000 kPa	854.5 ± 1.4
318.15 K, 4000 kPa	856.2 ± 1.5
318.15 K, 6000 kPa	857.9 ± 1.5
318.15 K, 8000 kPa	859.5 ± 1.6
318.15 K, 10000 kPa	861.2 ± 1.7
318.15 K, 12000 kPa	862.8 ± 1.8
318.15 K, 14000 kPa	864.3 ± 1.9
318.15 K, 16000 kPa	865.8 ± 1.9
318.15 K, 18000 kPa	867.3 ± 2
318.15 K, 20100 kPa	868.9 ± 2.1

CC(=O)N(C)C [N,N-dimethylethanamide]
Conditions	mass density [kg/m3]
288.15 K, 100 kPa	945.7 ± 0.5
288.15 K, 2000 kPa	946.7 ± 0.5
288.15 K, 4000 kPa	947.8 ± 0.5
288.15 K, 6000 kPa	949 ± 0.6
288.15 K, 8100 kPa	950.1 ± 0.6
288.15 K, 9900 kPa	951.1 ± 0.6
288.15 K, 12000 kPa	952.2 ± 0.6
288.15 K, 13900 kPa	953.2 ± 0.6
288.15 K, 16000 kPa	954.3 ± 0.6
288.15 K, 18100 kPa	955.4 ± 0.7
288.15 K, 20000 kPa	956.5 ± 0.7
298.15 K, 100 kPa	937 ± 0.5
298.15 K, 2000 kPa	938.1 ± 0.5
298.15 K, 4100 kPa	939.4 ± 0.6
298.15 K, 6100 kPa	940.6 ± 0.6
298.15 K, 8100 kPa	941.8 ± 0.6
298.15 K, 10000 kPa	943 ± 0.6
298.15 K, 12100 kPa	944.1 ± 0.7
298.15 K, 14200 kPa	945.3 ± 0.7
298.15 K, 16300 kPa	946.4 ± 0.7
298.15 K, 18400 kPa	947.5 ± 0.7
298.15 K, 20100 kPa	948.6 ± 0.7
308.15 K, 100 kPa	927.9 ± 0.5
308.15 K, 2000 kPa	929.1 ± 0.6
308.15 K, 4100 kPa	930.4 ± 0.6
308.15 K, 6100 kPa	931.6 ± 0.6
308.15 K, 8100 kPa	932.8 ± 0.6
308.15 K, 10100 kPa	934 ± 0.7
308.15 K, 12100 kPa	935.3 ± 0.7
308.15 K, 14200 kPa	936.5 ± 0.7
308.15 K, 16300 kPa	937.6 ± 0.7
308.15 K, 18200 kPa	938.7 ± 0.8
308.15 K, 20200 kPa	939.9 ± 0.8
318.15 K, 100 kPa	918.7 ± 0.5
318.15 K, 2000 kPa	919.8 ± 0.6
318.15 K, 4000 kPa	921.2 ± 0.6
318.15 K, 6000 kPa	922.5 ± 0.6
318.15 K, 8000 kPa	923.8 ± 0.7
318.15 K, 9900 kPa	925 ± 0.7
318.15 K, 12000 kPa	926.3 ± 0.7
318.15 K, 14000 kPa	927.5 ± 0.8
318.15 K, 16000 kPa	928.7 ± 0.8
318.15 K, 18100 kPa	930 ± 0.8
318.15 K, 20000 kPa	931.3 ± 0.8

CN(C)C=O [dimethylformamide]
Conditions	mass density [kg/m3]
288.15 K, 100 kPa	953.4 ± 0.5
288.15 K, 2100 kPa	954.5 ± 0.5
288.15 K, 4000 kPa	955.6 ± 0.5
288.15 K, 6100 kPa	956.8 ± 0.5
288.15 K, 7900 kPa	957.8 ± 0.5
288.15 K, 9900 kPa	958.9 ± 0.6
288.15 K, 12100 kPa	960.1 ± 0.6
288.15 K, 14000 kPa	961.2 ± 0.6
288.15 K, 16000 kPa	962.2 ± 0.6
288.15 K, 18000 kPa	963.3 ± 0.6
288.15 K, 19800 kPa	964.3 ± 0.6
298.15 K, 100 kPa	943.8 ± 0.5
298.15 K, 2000 kPa	945 ± 0.5
298.15 K, 4100 kPa	946.2 ± 0.5
298.15 K, 6100 kPa	947.4 ± 0.6
298.15 K, 8100 kPa	948.6 ± 0.6
298.15 K, 10100 kPa	949.8 ± 0.6
298.15 K, 12100 kPa	951 ± 0.6
298.15 K, 14100 kPa	952.1 ± 0.6
298.15 K, 16300 kPa	953.3 ± 0.7
298.15 K, 18300 kPa	954.3 ± 0.7
298.15 K, 20100 kPa	955.5 ± 0.7
308.15 K, 100 kPa	935 ± 0.5
308.15 K, 2000 kPa	936.2 ± 0.5
308.15 K, 4100 kPa	937.6 ± 0.6
308.15 K, 6100 kPa	938.9 ± 0.6
308.15 K, 8100 kPa	940 ± 0.6
308.15 K, 10100 kPa	941.2 ± 0.6
308.15 K, 12100 kPa	942.5 ± 0.7
308.15 K, 14300 kPa	943.7 ± 0.7
308.15 K, 16300 kPa	944.9 ± 0.7
308.15 K, 18300 kPa	946 ± 0.7
308.15 K, 20200 kPa	947 ± 0.7
318.15 K, 100 kPa	925.5 ± 0.5
318.15 K, 2100 kPa	926.9 ± 0.6
318.15 K, 4000 kPa	928.3 ± 0.6
318.15 K, 6000 kPa	929.6 ± 0.6
318.15 K, 7900 kPa	930.8 ± 0.6
318.15 K, 10200 kPa	932.2 ± 0.7
318.15 K, 12000 kPa	933.4 ± 0.7
318.15 K, 14000 kPa	934.5 ± 0.7
318.15 K, 16000 kPa	935.8 ± 0.7
318.15 K, 18000 kPa	937 ± 0.8
318.15 K, 20200 kPa	938.1 ± 0.8
